# Laboratory results from article PMC10459042, “Synthesis of 1,2,3-Triazole-Containing Methoxylated Cinnamides and Their Antileishmanial Activity against the Leishmania braziliensis Species” (Pharmaceuticals, 2023).
# Assays:
# [1] = system: L. braziliensis-infected macrophages; test: ROS levels in Leishmania-infected macrophages (H2DCFDA); type: cell-based, Leishmania braziliensis; details: 5.0 µg/mL, 48 h at 37 °C
# Description: Macrophages (1 × 10^6 cells/mL) were incubated in 96-well culture plates (Nunc, Nunclon, Roskilde, Denmark) and infected with L. braziliensis promastigotes (at a ratio of 10 parasites per cell). The infected macrophages were either left untreated or treated with Compound 28 (at a concentration of 5.0 µg/mL) for 48 h at 37 °C in 5% CO2. The cells were washed with PBS and incubated with 20 μmol/L H2DCFDA (Molecular Probes, Eugene, Oregon, USA) for 30 min in the dark. The fluorescence intensity was measured using a spectrofluorometer (FLx800; BioTek Instruments, Winooski, VT, USA) at 485 nm excitation and 528 nm emission. As a positive control, the infected macrophages were incubated with H2O2 at a concentration of 0.02 µg/mL (0.5 µmol/L). Parasites that were untreated with Compound 28 and not labeled with the fluorescent probe were used as the sample blank.
# Figure 3 Production of ROS in L. braziliensis-infected macrophages treated with Compound 28. Leishmania braziliensis-infected macrophages (1 × 10^5 cells) were incubated with Compound 28 (5.0 µg/mL) for 48 h at 37 °C in a 5% CO2 environment. Subsequently, 2′,7′-dichlorodihydrofluorescein diacetate (H2DCFDA, 9.7 μg/mL) was added for 30 min under dark conditions. The fluorescence levels were measured in a spectrofluorometer at 485/528 nm. H2O2 (0.5 µmol/L) was used as a positive control. […]
# [2] = system: Leishmania braziliensis promastigotes; test: Depolarization of mitochondrial membrane potential (ΔΨm), JC-1; type: cell-based; details: one IC50 value, 48 h at 24 °C; non-treated parasites 7.2
# Description: Leishmania braziliensis promastigotes (1 × 10^7 cells/mL) were treated with compound 28 (at a concentration corresponding to one IC50 value) for 48 h at 24 °C. The parasites (3 × 10^6 cells/mL) were then labeled with JC-1 (5 µg/mL, Sigma-Aldrich, St. Louis, MO, USA) for 30 min at 37 °C. After washing twice with PBS to remove the non-internalized dye, the samples were added to a black 96-well plate, and the ΔΨm was analyzed in a spectrofluorometer (FLx800, BioTek Instruments, Winooski, VT, USA) with an excitation filter of 485 nm and emission wavelength of 528 nm and […] to measure the green and red fluorescence, respectively. The ΔΨm was determined using the ratio between the red/green fluorescence intensity. Parasites that were exposed to 1.3 µg/mL (5.0 µmol/L) of FCCP (Sigma-Aldrich, St. Louis, MO, USA) for 20 min were used as a control. […]
# Figure 4 ΔΨm and ROS production in Leishmania after exposure to Compound 28. […] (A) Depolarization of ΔΨm was evaluated using the JC-1 fluorescent probe. Samples were analyzed fluorometrically, and the results are expressed as the ratio of red/green fluorescence. […] (B) ROS production was evaluated using the H2DCFDA probe. The fluorescence intensity was measured by fluorimetry, and the results are expressed as the fold increase in the ROS level compared with the non-treated control. […]
# [3] = system: L. braziliensis promastigotes infecting murine macrophages; test: Inhibition of infection (parasites pre-incubated with compound, then used to infect macrophages); type: cell-based, Leishmania braziliensis; details: for Number of Amastigotes per Cell using pre-incubated parasites: untreated 8.9; for Percentage of Infected Macrophages Using Pre-Incubated Parasites: untreated 90.5
# Description: (§1) To evaluate the inhibition of infection, promastigotes (5 × 10^6 cells) were first incubated with Compound 28 or AmpB (0, 1.0, 2.5 and 5.0 µg/mL in both cases) for 4 h at 24 °C; these were then used to infect murine macrophages (at a ratio of 10 parasites per macrophage) and incubated for 24 h at 37 °C in 5% CO2. Then, cells were fixed with 4% paraformaldehyde, washed, and stained with Giemsa. The percentage of infected macrophages and the number of recovered amastigotes were determined by counting 200 cells, in triplicate, using an optical microscope.
# [4] = system: L. braziliensis promastigotes; test: ROS production in promastigotes (H2DCFDA); type: cell-based, Leishmania braziliensis; details: one IC50 value, 48 h at 24 °C
# Description: After treatment with Compound 28 (at a concentration corresponding to one IC50 value) for 48 h at 24 °C, L. braziliensis promastigotes were washed with PBS, and the parasite concentration was adjusted to 3 × 10^6 cells per well. H2DCFDA (Sigma-Aldrich, St. Louis, MO, USA) was then added and incubated for 30 min in the dark, and samples were read in a fluorometric microplate reader (FLx800, BioTek Instruments, Winooski, VT, USA) with excitation and emission wavelengths of 485 and 528 nm, respectively. Parasites that were untreated or treated with Compound 28 and not labeled with the fluorescent probe were used as the blank.
# Figure 4 ΔΨm and ROS production in Leishmania after exposure to Compound 28. Leishmania braziliensis promastigotes were not exposed (negative control) or exposed to Compound 28 (at a concentration corresponding to the IC50 value) for 48 h. (A) Depolarization of ΔΨm was evaluated using the JC-1 fluorescent probe. Samples were analyzed fluorometrically, and the results are expressed as the ratio of red/green fluorescence. FCCP ([…]) was used as a positive control. (B) ROS production was evaluated using the H2DCFDA probe. The fluorescence intensity was measured by fluorimetry, and the results are expressed as the fold increase in the ROS level compared with the non-treated control. H2O2-treated parasites were used as a positive control. […]
# [5] = system: L. braziliensis-infected macrophages; test: Treatment of infected macrophages; type: cell-based, Leishmania braziliensis; details: 48 h at 37 °C; for Number of Amastigotes per Cell after treatment: untreated 10.3; for Percentage of Infected Macrophages after Treatment: untreated 92.8
# Description: Murine macrophages (5 × 10^5 cells) were plated on round glass coverslips in 24-well plates in RPMI 1640 medium with added 20% FBS and 20 mmol/L L-glutamine at pH 7.4 and incubated for 24 h at 37 °C in 5% CO2. Promastigotes were added to the wells (at a ratio of 10 parasites per macrophage), and cultures were incubated for 48 h at 37 °C in a 5% CO2 environment. Free parasites were removed by extensive washing with RPMI 1640 medium, and the infected macrophages were treated with Compound 28 or AmpB (0, 1.0, 2.5 and 5.0 µg/mL in both cases) for 48 h at 37 °C in 5% CO2.
# as §1
# [6] = parasites pre-incubated with 1.0 µg/mL at 24 °C
# [7] = parasites pre-incubated with 2.5 µg/mL at 24 °C
# [8] = parasites pre-incubated with 5.0 µg/mL at 24 °C
smiles,measurement,setting,value
"CCN(CC)c1ccc2cc(-n3cc(CNC(=O)/C=C/c4ccc(OC)c(OC)c4)nn3)c(=O)oc2c1 [Compound 28, N-((1-(7-(diethylamino)-2-oxo-2H-chromen-3-yl)-1H-1,2,3-triazol-4-yl)methyl) (3,4-dimethoxy) cinnamide]",Increase in ROS levels in treated and infected cells compared with untreated cells,[1],44.1%
same,"ΔΨm, JC-1 ratio of red/green fluorescence",[2],4.0
same,Number of Amastigotes per Cell using pre-incubated parasites,[3]; [6],5.8
same,Percentage of Infected Macrophages Using Pre-Incubated Parasites,[3]; [6],84.5%
same,Number of Amastigotes per Cell using pre-incubated parasites,[3]; [7],4.9
same,Percentage of Infected Macrophages Using Pre-Incubated Parasites,[3]; [7],80.5%
same,Number of Amastigotes per Cell using pre-incubated parasites,[3]; [8],3.6
same,Percentage of Infected Macrophages Using Pre-Incubated Parasites,[3]; [8],71.5%
same,Fold increase in ROS production compared with untreated parasites,[4],2.5 fold
same,Number of Amastigotes per Cell after treatment,[5]; 1.0 µg/mL,6.7
same,Percentage of Infected Macrophages after Treatment,[5]; 1.0 µg/mL,79.5%
same,Number of Amastigotes per Cell after treatment,[5]; 2.5 µg/mL,4.0
same,Percentage of Infected Macrophages after Treatment,[5]; 2.5 µg/mL,70.3%
same,Number of Amastigotes per Cell after treatment,[5]; 5.0 µg/mL,2.9
same,Percentage of Infected Macrophages after Treatment,[5]; 5.0 µg/mL,60.2%
